Measurements taken from ChEMBL document CHEMBL4602640, “Licochalcone A suppresses the proliferation of sarcoma HT-1080 cells, as a selective R132C mutant IDH1 inhibitor” (Bioorg Med Chem Lett, 2020).
Active and inactive are the calls of the source. No cut-off for these calls is given here.

Assays:
[1] = biological target: T1, Isocitrate dehydrogenase [NADP] cytoplasmic (Homo sapiens, UniProt O75874); experiment: Inhibition of IDH1 (unknown origin) at 30 uM by enzymatic assay
HT-1080 [2] = experiment: Induction of apoptosis in human HT1080 cells assessed as early apoptotic cells at 5 uM incubated for 48 hrs by flow cytometric analysis (reference value: 0.63%); assay type: functional
HT-1080 [3] = experiment: Induction of apoptosis in human HT1080 cells assessed as late apoptotic cells at 10 uM incubated for 48 hrs by flow cytometric analysis (reference value: 2.48%); assay type: functional
HT-1080 [4] = experiment: Induction of cell cycle arrest in human HT1080 cells assessed accumulation at G2 phase at 20 uM incubated for 24 hrs by flow cytometric analysis (reference value: 15.64%); assay type: functional
HT-1080 [5] = experiment: Induction of cell cycle arrest in human HT1080 cells assessed accumulation at G2 phase incubated for 24 hrs by flow cytometric analysis; assay type: functional, cell-based
HT-1080 [6] = experiment: Induction of apoptosis in human HT1080 cells assessed as viable cells at 10 uM incubated for 48 hrs by flow cytometric analysis (reference value: 95.9%); assay type: functional; details: HT-1080, 48 h, read-out: Activity
HT-1080 [7] = experiment: Reduction in CDK1 mRNA level in human HT1080 cells incubated for 48 hrs by qRT-PCR analysis; assay type: functional, cell-based
[8] = test system: Isocitrate dehydrogenase [NADP] cytoplasmic (Homo sapiens), O75874 [R132C]; experiment: Binding affinity to IDH1 R132C mutant (unknown origin) by mass spectrometry
Isocitrate dehydrogenase [NADP] cytoplasmic (Homo sapiens), O75874 [R132C], sequence (O75874 whole entry R132C): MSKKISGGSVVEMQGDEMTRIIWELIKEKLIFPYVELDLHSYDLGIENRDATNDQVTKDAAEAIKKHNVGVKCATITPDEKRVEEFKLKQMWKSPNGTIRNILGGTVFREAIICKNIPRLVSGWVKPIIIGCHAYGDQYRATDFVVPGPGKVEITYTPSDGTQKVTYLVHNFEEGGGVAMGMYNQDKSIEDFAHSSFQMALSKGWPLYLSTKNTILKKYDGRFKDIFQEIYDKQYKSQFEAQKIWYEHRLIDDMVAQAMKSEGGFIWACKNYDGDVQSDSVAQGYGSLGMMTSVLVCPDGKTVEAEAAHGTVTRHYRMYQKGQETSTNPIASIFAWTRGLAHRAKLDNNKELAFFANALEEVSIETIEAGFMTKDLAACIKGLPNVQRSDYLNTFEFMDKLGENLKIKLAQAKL

HT-1080 [9] = experiment: Induction of apoptosis in human HT1080 cells assessed as necrotic cells at 10 uM incubated for 48 hrs by flow cytometric analysis (reference value: 0.95%); assay type: functional
[10] = Cytotoxicity against human RCTEC incubated for 48 hrs
[11] = test system: Isocitrate dehydrogenase [NADP] cytoplasmic (Homo sapiens), O75874 [R132C]; experiment: Inhibition of IDH1 R132C mutant (unknown origin) at 30 uM by enzymatic assay
HT-1080 [12] = experiment: Induction of apoptosis in human HT1080 cells assessed as early apoptotic cells at 20 uM incubated for 48 hrs by flow cytometric analysis (reference value: 0.63%); assay type: functional
[13] = biological target: T1, Isocitrate dehydrogenase [NADP] cytoplasmic; experiment: Inhibition of IDH1 (unknown origin) by enzymatic assay
HT-1080 [14] = experiment: Induction of apoptosis in human HT1080 cells assessed as viable cells at 5 uM incubated for 48 hrs by flow cytometric analysis (reference value: 95.9%); assay type: functional; details: HT-1080, 48 h, read-out: Activity
HT-1080 [15] = experiment: Induction of apoptosis in human HT1080 cells assessed as late apoptotic cells at 20 uM incubated for 48 hrs by flow cytometric analysis (reference value: 2.48%); assay type: functional
HT-1080 [16] = experiment: Induction of cell cycle arrest in human HT1080 cells assessed accumulation at S phase at 10 uM incubated for 24 hrs by flow cytometric analysis (reference value: 52.69%); assay type: functional
HT-1080 [17] = experiment: Induction of apoptosis in human HT1080 cells assessed as necrotic cells at 5 uM incubated for 48 hrs by flow cytometric analysis (reference value: 0.95%); assay type: functional
[18] = biological target: T2, Isocitrate dehydrogenase [NADP] cytoplasmic (Homo sapiens, UniProt O75874, R132C); experiment: Inhibition of IDH1 R132C mutant (unknown origin) by enzymatic assay
T2 sequence (O75874 2-414 R132C limits assumed): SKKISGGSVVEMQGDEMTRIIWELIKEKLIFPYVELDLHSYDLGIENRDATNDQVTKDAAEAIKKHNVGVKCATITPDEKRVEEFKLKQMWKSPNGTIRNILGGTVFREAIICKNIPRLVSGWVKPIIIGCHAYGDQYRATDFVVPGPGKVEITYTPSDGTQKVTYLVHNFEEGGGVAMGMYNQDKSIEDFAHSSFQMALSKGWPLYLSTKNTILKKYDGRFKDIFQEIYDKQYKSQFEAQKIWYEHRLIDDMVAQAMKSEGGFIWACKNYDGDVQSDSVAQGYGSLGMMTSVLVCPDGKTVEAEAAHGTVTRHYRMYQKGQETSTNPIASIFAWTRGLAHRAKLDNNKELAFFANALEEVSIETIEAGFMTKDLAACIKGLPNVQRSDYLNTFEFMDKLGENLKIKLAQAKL

[19] = test system: Isocitrate dehydrogenase [NADP] cytoplasmic (Homo sapiens), O75874 [R132H]; experiment: Binding affinity to IDH1 R132H mutant (unknown origin) by mass spectrometry
Isocitrate dehydrogenase [NADP] cytoplasmic (Homo sapiens), O75874 [R132H], sequence (O75874 whole entry R132H): as the sequence (O75874 whole entry R132C) above, with C132H counted along it

HT-1080 [20] = experiment: Reduction in PDHB […] expression in human HT1080 cells by RNA-Seq data analysis; assay type: functional, cell-based
HT-1080 [21] = experiment: Reduction in 2 HG level in human HT1080 cells harboring IDH1-R132C mutation incubated for 48 hrs by LC-MS analysis relative to control; assay type: functional
HT-1080 [22] = experiment: Antiproliferative activity against human HT1080 cells harboring IDH1-R132C mutation incubated for 48 hrs; assay type: functional, cell-based
HT-1080 [23] = experiment: Reduction in CDK2 protein expression in human HT1080 cells incubated for 48 hrs by Western blot analysis; assay type: functional, cell-based
U-87 MG = experiment: Cytotoxicity against human U87MG cells harboring wild type IDH1 incubated for 48 hrs; assay type: functional, cell-based, U-87MG ATCC
HT-1080 [24] = experiment: Induction of cell cycle arrest in human HT1080 cells assessed accumulation at G2 phase at 10 uM incubated for 24 hrs by flow cytometric analysis (reference value: 15.64%); assay type: functional
HT-1080 [25] = experiment: Reduction in CDK1 protein expression in human HT1080 cells incubated for 48 hrs by Western blot analysis; assay type: functional, cell-based
HT-1080 [26] = experiment: Induction of cell cycle arrest in human HT1080 cells assessed accumulation at S phase at 5 uM incubated for 24 hrs by flow cytometric analysis (reference value: 52.69%); assay type: functional
HT-1080 [27] = experiment: Induction of apoptosis in human HT1080 cells assessed as late apoptotic cells at 5 uM incubated for 48 hrs by flow cytometric analysis (reference value: 2.48%); assay type: functional
[28] = biological target: T2, Isocitrate dehydrogenase [NADP] cytoplasmic; experiment: Binding affinity to IDH1 R132C mutant (unknown origin) by surface plasmon resonance assay
HT-1080 [29] = experiment: Reduction in CDK2 mRNA level in human HT1080 cells incubated for 48 hrs by qRT-PCR analysis; assay type: functional, cell-based
HT-1080 [30] = experiment: Induction of cell cycle arrest in human HT1080 cells assessed accumulation at G1 phase at 20 uM incubated for 24 hrs by flow cytometric analysis (reference value: 31.67%); assay type: functional
HT-1080 [31] = experiment: Reduction in ACO1 […] expression in human HT1080 cells by RNA-Seq data analysis; assay type: functional, cell-based
[32] = biological target: T3, Isocitrate dehydrogenase [NADP] cytoplasmic (Homo sapiens, UniProt O75874, R132H); experiment: Inhibition of IDH1 R132H mutant (unknown origin) by enzymatic assay
T3 sequence (O75874 2-414 R132H limits assumed): as the sequence (O75874 2-414 R132C limits assumed) above, with C131H counted along it

HT-1080 [33] = experiment: Induction of apoptosis in human HT1080 cells assessed as viable cells at 20 uM incubated for 48 hrs by flow cytometric analysis (reference value: 95.9%); assay type: functional; details: HT-1080, 48 h, read-out: Activity
HT-1080 [34] = experiment: Induction of cell cycle arrest in human HT1080 cells assessed accumulation at S phase at 20 uM incubated for 24 hrs by flow cytometric analysis (reference value: 52.69%); assay type: functional
[35] = biological target: T1, Isocitrate dehydrogenase [NADP] cytoplasmic; experiment: Binding affinity to IDH1 (unknown origin) by surface plasmon resonance assay
HT-1080 [36] = experiment: Induction of cell cycle arrest in human HT1080 cells assessed accumulation at G2 phase at 5 uM incubated for 24 hrs by flow cytometric analysis (reference value: 15.64%); assay type: functional
HT-1080 [37] = experiment: Induction of cell cycle arrest in human HT1080 cells assessed accumulation at G1 phase at 10 uM incubated for 24 hrs by flow cytometric analysis (reference value: 31.67%); assay type: functional
HT-1080 [38] = experiment: Induction of apoptosis in human HT1080 cells assessed as early apoptotic cells at 10 uM incubated for 48 hrs by flow cytometric analysis (reference value: 0.63%); assay type: functional
[39] = biological target: T3, Isocitrate dehydrogenase [NADP] cytoplasmic; experiment: Binding affinity to IDH1 R132H mutant (unknown origin) by surface plasmon resonance assay
HT-1080 [40] = experiment: Induction of apoptosis in human HT1080 cells assessed as necrotic cells at 20 uM incubated for 48 hrs by flow cytometric analysis (reference value: 0.95%); assay type: functional
HT-1080 [41] = experiment: Induction of cell cycle arrest in human HT1080 cells assessed accumulation at G1 phase at 5 uM incubated for 24 hrs by flow cytometric analysis (reference value: 31.67%); assay type: functional
Homo sapiens = species on record: Homo sapiens; experiment: Ratio of inhibition of IDH1 R132C mutant (unknown origin) at 30 uM to inhibition of IDH1 (unknown origin) at 30 uM by enzymatic assay

T1 sequence (O75874 whole entry): as the sequence (O75874 whole entry R132C) above, with C132R counted along it

inhibition [1]: inactive | Activity [8]: Active | inhibition [11]: Active | IC50 [13]: > 100 µM | IC50 [18]: 5.18 µM | Activity [19]: inactive | IC50 (HT-1080 [22]; HT-1080, 48 h): 10.8 µM | Kd [28]: 2.81 µM | IC50 [32]: 76.9 µM | Kd [35]: > 50 µM | Kd [39]: 12.8 µM | Ratio (Homo sapiens): 3
SMILES: C=CC(C)(C)c1cc(/C=C/C(=O)c2ccc(O)cc2)c(OC)cc1O [LICOAGROCHACONE A]
Activity (HT-1080 [2]): 1.26% | Activity (HT-1080 [3]): 26.6% | Activity (HT-1080 [4]): 33.95% | Activity (HT-1080 [5]): Dose-dependent effect | viability at 10 µM (HT-1080 [6]): 64.1% | inhibition (HT-1080 [7]): Dose-dependent effect | Activity (HT-1080 [9]): 4.4% | IC50 [10]: > 50 µM | Activity (HT-1080 [12]): 0.82% | viability at 5 µM (HT-1080 [14]): 80.5% | Activity (HT-1080 [15]): 54.4% | Activity (HT-1080 [16]): 45.83% | Activity (HT-1080 [17]): 3.13% | inhibition (HT-1080 [20]): Dose-dependent effect | inhibition (HT-1080 [21]): Dose-dependent effect | inhibition (INH) (HT-1080 [21]): >50% | Activity (HT-1080 [22]): Dose-dependent effect | inhibition (HT-1080 [23]): Dose-dependent effect | IC50 (U-87 MG): > 50 µM | Activity (HT-1080 [24]): 24.18% | inhibition (HT-1080 [25]): Dose-dependent effect | Activity (HT-1080 [26]): 43.13% | Activity (HT-1080 [27]): 15.2% | inhibition (HT-1080 [29]): Dose-dependent effect | Activity (HT-1080 [30]): 24.76% | inhibition (HT-1080 [31]): Dose-dependent effect | viability at 20 µM (HT-1080 [33]): 42% | Activity (HT-1080 [34]): 41.29% | Activity (HT-1080 [36]): 20.94% | Activity (HT-1080 [37]): 21.99% | Activity (HT-1080 [38]): 4.97% | Activity (HT-1080 [40]): 2.79% | Activity (HT-1080 [41]): 35.93%
